Results on 3 molecules are retold here after patent US20050288310A1, “Methods of treating cellular proliferative disease using naphthalimide and PARP-1 inhibitors” (priority 2004, published 2005).

Structures are written as SMILES.

One series has as its system RIF-1 tumors. Briefly: Murine tumor growth delay model (RIF-1 tumors in C3H mice). The settings on record: same doses, IP; for Median (days to 4×): median tumor volume quadrupling time; for T/C (tumor growth delay ratio): ratio of 4× growth times of treated and untreated control tumors; for Delay (tumor growth delay): versus untreated control.
A short description of the next series: Solubility. The format is physicochemical.

Method for RIF-1 tumors: C3H mice were inoculated subcutaneously in the flank with 2×10^5 radiation-induced fibrosarcoma cells (RIF-1) to produce experimental tumors. When tumors reached ˜100 mm^3, test compounds (100 uL) were administered intraperitoneally (IP).
Single compound groups received either amonafide (60 mg/kg), caffeine (75 mg/kg), or nicotinamide (1000 mg/kg).
Combination groups received amonafide (60 mg/kg), in combination with either caffeine (75 mg/kg), or nicotinamide (1000 mg/kg).
All compounds were administered at the same concentration as the combination groups (amonafide (60 mg/kg), caffeine (75 mg/kg), nicotinamide (1000 mg/kg). Sequential groups included one group treated with amonafide followed by treatment with caffeine, one group treated with caffeine followed by treatment with amonafide, one group treated with amonafide followed by treatment with nicotinamide, and one group treated with nicotinamide followed by treatment with amonafide.
Four mice were used in each treatment group.
Tumors were measured 3 times a week using Vernier calipers, and tumor volume (V) was calculated according to the formula: [formula]
Where D1-3 are perpendicular diameters measured in millimeters (mm).
Tumor volume quadrupling time was defined as the time (days) for treated and untreated tumors to grow to four times (4×) their initial treatment volume. Tumor growth delay ratio (T/C) was defined as the ratio of 4× growth times of treated (T) and untreated control (C) tumors.

On to `CN(C)CCN1C(=O)c2cccc3cc(N)cc(c23)C1=O` [Amonafide, 5-amino-2-[(dimethylamine)ethyl]-1H-benz[de-]isoquinoline-1,3-(2H)-dione], for which, in the series with RIF-1 tumors, the “Median (days to 4×)” value came out at 7.5, the “T/C (tumor growth delay ratio)” value is 1.6 and the “Delay (tumor growth delay)” value is 2.97. Moreover, the “Solubility in water compared to monohydrochloride salt” value in “Solubility” is “more soluble in water”. In “Solubility” (at therapeutic concentrations), the Solubility in saline result was “soluble in saline at therapeutic concentrations”.
For `Cn1c(=O)c2c(ncn2C)n(C)c1=O` [Caffeine, caffeine], in the series on RIF-1 tumors, the “Median (days to 4×)” value was determined as 5.5, the “T/C (tumor growth delay ratio)” value was 1.2 and the “Delay (tumor growth delay)” value is 1.01.
For `NC(=O)c1cccnc1` [Nicotinamide, nicotinamide] the same measures were 5.3, 1.1 and 0.76.
